Results on 18 compounds are retold here after patent US20260209248A1, “INHIBITORS OF KIF18A AND USES THEREOF” (Insilico Medicine IP Limited, priority 2022, published 2026).

The structures appear in SMILES notation. A value given as a limit tells only on which side of the number the result lay.

The experiment concerns the target T1, KIF18A (Homo sapiens, UniProt Q8NI77).
T1 sequence (Q8NI77 1-898): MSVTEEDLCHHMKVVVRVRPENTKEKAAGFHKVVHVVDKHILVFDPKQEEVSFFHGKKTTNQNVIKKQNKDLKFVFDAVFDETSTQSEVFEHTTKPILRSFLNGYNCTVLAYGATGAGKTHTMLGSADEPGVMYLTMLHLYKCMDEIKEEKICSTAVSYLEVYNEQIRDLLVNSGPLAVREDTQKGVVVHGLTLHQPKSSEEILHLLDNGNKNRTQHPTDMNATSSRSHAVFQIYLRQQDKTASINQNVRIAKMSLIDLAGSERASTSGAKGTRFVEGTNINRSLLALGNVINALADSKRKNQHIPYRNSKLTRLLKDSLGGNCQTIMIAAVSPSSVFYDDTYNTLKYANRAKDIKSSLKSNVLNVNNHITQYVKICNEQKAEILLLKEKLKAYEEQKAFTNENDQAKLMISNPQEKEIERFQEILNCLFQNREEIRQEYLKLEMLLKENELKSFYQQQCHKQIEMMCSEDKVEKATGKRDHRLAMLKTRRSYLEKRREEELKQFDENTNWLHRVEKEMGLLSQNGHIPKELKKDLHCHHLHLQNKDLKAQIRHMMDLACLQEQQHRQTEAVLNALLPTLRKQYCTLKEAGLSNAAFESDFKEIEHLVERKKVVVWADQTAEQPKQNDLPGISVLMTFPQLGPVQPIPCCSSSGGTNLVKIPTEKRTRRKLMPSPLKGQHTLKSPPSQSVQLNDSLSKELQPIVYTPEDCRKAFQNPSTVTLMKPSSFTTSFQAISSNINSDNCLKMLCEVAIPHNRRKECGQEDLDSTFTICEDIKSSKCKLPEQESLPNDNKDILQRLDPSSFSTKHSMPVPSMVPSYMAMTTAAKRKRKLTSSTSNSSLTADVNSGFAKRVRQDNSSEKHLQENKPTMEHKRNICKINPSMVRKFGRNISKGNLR
Description: KIF18A Assay (ADP Glo luminescence). Type of experiment: biochemical. The conditions noted are these: enzyme pre-incubated 15 min at 25° C., ATP reaction 60 min, 10 pts 1:3 dilution. How it is done:
The KIF18A assay was performed as follows:
1.1. Prepared 1× kinase Buffer 1.2. […] 1.3. Data analysis−Calculated IC50 and plot dose-response curve of compounds: • Calculated IC50 by fitting % Inhibition values and log of compound concentrations to nonlinear regression (dose response−variable slope) with GraphPad 6.0.
[formula] • X: log of inhibitor concentration; Y: % Inhibition

Regarding `O=C(Nc1ccnc2c1OCC1COCCN21)c1ccc(NS(=O)(=O)CCO)cc1N1CCC2(CC1)CC2` (stereo not drawn) [EX01, 4-((2-hydroxyethyl)sulfonamido)-2-(6-azaspiro[2.5]octan-6-yl)-N-(6a,7,9,10-tetrahydro-6H-[1,4]oxazino[4,3-d]pyrido[3,2-b][1,4]oxazin-4-yl)benzamide], the IC50 is < 50 nM.

Regarding `CN1CCCOc2c(NC(=O)c3ccc(NS(=O)(=O)CCO)cc3N3CCC4(CC3)CC4)ccnc21` [EX02, 4-((2-hydroxyethyl)sulfonamido)-N-(5-methyl-2,3,4,5-tetrahydropyrido[3,2-b][1,4]oxazepin-9-yl)-2-(6-azaspiro[2.5]octan-6-yl)benzamide], the IC50 was < 50 nM.

Consider `O=C(Nc1ccc2c(n1)N1CCOCC1CO2)c1ccc(NS(=O)(=O)CCO)cc1N1CCC2(CC1)CC2` (stereo not drawn) [EX03, 4-((2-hydroxyethyl)sulfonamido)-2-(6-azaspiro[2.5]octan-6-yl)-N-(6a,7,9,10-tetrahydro-6H-[1,4]oxazino[4,3-d]pyrido[3,2-b][1,4]oxazin-2-yl)benzamide], for which the half-inhibitory concentration (IC50) is < 50 nM.

For `O=C(Nc1cccn(CCCC(F)(F)F)c1=O)c1ccc(NS(=O)(=O)CCO)cc1N1CCC2(CC1)CC2` [EX04, 4-((2-hydroxyethyl)sulfonamido)-N-(2-oxo-1-(4,4,4-trifluorobutyl)-1,2-dihydropyridin-3-yl)-2-(6-azaspiro[2.5]octan-6-yl)benzamide], the concentration for half-maximal inhibition (IC50) was in the range of 50 to 500 nM.

In turn, `O=C(Nc1ccc(=O)n(C2CCOCC2)n1)c1ccc(NS(=O)(=O)CCO)cc1N1CCC2(CC1)CC2` [EX05, 4-((2-hydroxyethyl)sulfonamido)-N-(6-oxo-1-(tetrahydro-2H-pyran-4-yl)-1,6-dihydropyridazin-3-yl)-2-(6-azaspiro[2.5]octan-6-yl)benzamide] registered a concentration for half-maximal inhibition (IC50) of 50 to 500 nM.

For `O=C(Nc1ccc(=O)n(C2CCOCC2)c1)c1ccc(NS(=O)(=O)CCO)cc1N1CCC2(CC1)CC2` [EX06, 4-((2-hydroxyethyl)sulfonamido)-N-(6-oxo-1-(tetrahydro-2H-pyran-4-yl)-1,6-dihydropyridin-3-yl)-2-(6-azaspiro[2.5]octan-6-yl)benzamide], the concentration for half-maximal inhibition (IC50) was in the range of 500 to 15000 nM.

Take `O=C(Nc1ccc2c(n1)N1CCC(F)(F)CC1CO2)c1ccc(NS(=O)(=O)CCO)cc1N1CCC2(CC1)CC2` (stereo not drawn) [EX07, N-(8,8-difluoro-6,6a,7,8,9,10-hexahydrodipyrido[3,2-b:1′,2′-d][1,4]oxazin-2-yl)-4-((2-hydroxyethyl)sulfonamido)-2-(6-azaspiro[2.5]octan-6-yl)benzamide]: the IC50 is < 50 nM.

For the compound `O=C(Nc1ccc(=O)n(CCCC(F)(F)F)n1)c1ccc(NS(=O)(=O)CCO)cc1N1CCC2(CC1)CC2` [EX08, 4-((2-hydroxyethyl)sulfonamido)-N-(6-oxo-1-(4,4,4-trifluorobutyl)-1,6-dihydropyridazin-3-yl)-2-(6-azaspiro[2.5]octan-6-yl)benzamide], the concentration for half-maximal inhibition (IC50) is < 50 nM.

In the case of `O=C(Nc1ccnc2c1OCC1CC(F)(F)CCN21)c1ccc(NS(=O)(=O)CCO)cc1N1CCC2(CC1)CC2` (stereo not drawn) [EX10, N-(8,8-difluoro-6,6a,7,8,9,10-hexahydrodipyrido[3,2-b:1′,2′-d][1,4]oxazin-4-yl)-4-((2-hydroxyethyl)sulfonamido)-2-(6-azaspiro[2.5]octan-6-yl)benzamide], the IC50 was < 50 nM.

`COCCS(=O)(=O)N1CCc2cc(C(=O)Nc3cccc(N4CCOCC4)n3)c(N3CCC4(CC3)CC4)cc21` [EX13, 1-((2-methoxyethyl)sulfonyl)-N-(6-morpholinopyridin-2-yl)-6-(6-azaspiro[2.5]octan-6-yl)indoline-5-carboxamide] came in with a half-inhibitory concentration (IC50) of 500 to 15000 nM.

`O=C(Nc1cccc(N2CCOCC2)n1)c1cc2c(cc1N1CCC3(CC1)CC3)N(S(=O)(=O)CCO)CC2` [EX14, 1-((2-hydroxyethyl)sulfonyl)-N-(6-morpholinopyridin-2-yl)-6-(6-azaspiro[2.5]octan-6-yl)indoline-5-carboxamide]: the IC50 was < 50 nM.

On to `Cc1cc(NC(=O)c2cc3c(cc2N2CCC4(CC2)CC4)N(S(=O)(=O)CCO)CC3)nc(N2CCC(F)(F)CC2)n1` [EX15, N-(2-(4,4-difluoropiperidin-1-yl)-6-methylpyrimidin-4-yl)-1-((2-hydroxyethyl)sulfonyl)-6-(6-azaspiro[2.5]octan-6-yl)indoline-5-carboxamide], for which the IC50 is < 50 nM.

Take `O=C(Nc1ccc(=O)n(C2CC(F)(F)C2)n1)c1cc2c(cc1N1CCC3(CC1)CC3)N(S(=O)(=O)CCO)CC2` [EX18, N-(1-(3,3-difluorocyclobutyl)-6-oxo-1,6-dihydropyridazin-3-yl)-1-((2-hydroxyethyl)sulfonyl)-6-(6-azaspiro[2.5]octan-6-yl)indoline-5-carboxamide]: the concentration for half-maximal inhibition (IC50) is < 50 nM.

`O=C(Nc1ccnc2c1OCC1CC(F)(F)CCN21)c1cc2c(cc1N1CCC3(CC1)CC3)N(S(=O)(=O)CCO)CC2` (stereo not drawn) [EX19, N-(8,8-difluoro-6,6a,7,8,9,10-hexahydrodipyrido[3,2-b:1′,2′-d][1,4]oxazin-4-yl)-1-((2-hydroxyethyl)sulfonyl)-6-(6-azaspiro[2.5]octan-6-yl)indoline-5-carboxamide]: the IC50 was < 50 nM.

As for `Cc1cc(NC(=O)c2cc3c(cc2N2CCC4(CC2)CC4)N(S(C)(=O)=O)CC3)nc(N2CCC(F)(F)CC2)n1` [EX20, N-(2-(4,4-difluoropiperidin-1-yl)-6-methylpyrimidin-4-yl)-1-(methylsulfonyl)-6-(6-azaspiro[2.5]octan-6-yl)indoline-5-carboxamide], the IC50 was in the range of 50 to 500 nM.

As for `O=C(Nc1ccc(=O)n(C2CCC(F)(F)CC2)n1)c1cc2c(cc1N1CCC3(CC1)CC3)N(S(=O)(=O)CCO)CC2` [EX21, N-(1-(4,4-difluorocyclohexyl)-6-oxo-1,6-dihydropyridazin-3-yl)-1-((2-hydroxyethyl)sulfonyl)-6-(6-azaspiro[2.5]octan-6-yl)indoline-5-carboxamide], the IC50 is < 50 nM.

In the case of `CC(C)n1nc(NC(=O)c2cc3c(cc2N2CCC4(CC2)CC4)N(S(=O)(=O)CCO)CC3)ccc1=O` [EX22, 1-((2-hydroxyethyl)sulfonyl)-N-(1-isopropyl-6-oxo-1,6-dihydropyridazin-3-yl)-6-(6-azaspiro[2.5]octan-6-yl)indoline-5-carboxamide], the IC50 was < 50 nM.

For `Cc1cc(NC(=O)c2cc3c(cc2N2CCC4(CC2)CC4)N(C(=O)CCO)CC3)nc(N2CCC(F)(F)CC2)n1` [EX25, N-(2-(4,4-difluoropiperidin-1-yl)-6-methylpyrimidin-4-yl)-1-(3-hydroxypropanoyl)-6-(6-azaspiro[2.5]octan-6-yl)indoline-5-carboxamide], the IC50 lay in the range of 500 to 15000 nM.

One may read the IC50 as the concentration needed to halve the response being measured. A high value points to lower potency.
